Laboratory results published in the supplement of paper PMC10883282.

Key:
Experiment in all cases: relative viability vs DMSO control (72 h) (fraction); higher = more viable cells
KHOS-NP = system: KHOS-NP
Outline: (§1)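 Sarcoma cell lines went into 384-well plates at densities chosen to reach 80–90% confluence. After 24 h, each well received 2.5 µl of serially diluted compound, with source plates running from 10 mM to 0.0002 mM, and the plates were kept 72 h at 37 °C, 5% CO2, alongside 0.1% DMSO vehicle and a 5 µM positive control. Relative viability was derived from ATPLite readings as percent growth and averaged over up to triplicate wells. The data were then rescaled so that 1 stands for full and 0 for none.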

G401 = system: G401
Outline: as §1

A204 = system: A204
Outline: as §1

HS729 = system: HS729
Outline: as §1

SW684 = system: SW684
Outline: as §1

SK-ES-1 = system: SK-ES-1
Outline: as §1

N#CCC1(n2cc(-c3ncnc4[nH]ccc34)cn2)CN(C2CCN(C(=O)c3ccnc(C(F)(F)F)c3F)CC2)C1 [Itacitinib]
relative viability
Details | A204 | G401 | HS729 | KHOS-NP | SK-ES-1 | SW684
0.00017 µM | 1.02 | 0.99 | 1 | 1.087 | 1.04 | 1.1
0.00051 µM | 1.02 | 0.967 | 0.966 | 1.11 | 0.996 | 1.09
0.00152 µM | 1.03 | 0.921 | 0.937 | 1.09 | 0.977 | 1.09
0.00457 µM | 1.02 | 0.912 | 0.889 | 1.07 | 1.05 | 1.1
0.01372 µM | 1.04 | 0.962 | 0.833 | 1.06 | 0.979 | 1.07
0.04115 µM | 1.03 | 0.929 | 0.885 | 1.048 | 0.976 | 1.07
0.1235 µM | 1.01 | 0.902 | 0.792 | 1.035 | 1.01 | 1.06
0.3704 µM | 0.959 | 0.953 | 0.822 | 1.01 | 0.964 | 1.08
1.111 µM | 0.948 | 0.931 | 0.806 | 0.991 | 0.972 | 1.1
3.333 µM | 0.936 | 0.913 | 0.758 | 0.942 | 0.884 | 1.06
10 µM | 0.836 | 0.862 | 0.751 | 0.914 | 0.855 | 0.977
